The test system of series [1] is platelets. Description: Preservation of function in stored platelets (ATP secretion, aggregation, P-selectin expression, pH, platelet count). The format is cell-based. As to the method: It is known that other pentoses may have similar effects as D-Ribose, either through intracellular conversion to ribose or a direct effect. Ribulose-5-phosphate, xylulose-5-phosphate and xylitol were tested for preservation of activity in stored platelets according to the methods of examples 1 to 6.
Ribulose-5-phosphate was purchased from Sigma Chemical (St. Louis) and added to the standard CPD platelet storage solution. The following parameters of function were tested: ATP secretion in response to 10 nM thrombin; platelet aggregation; P-selectin expression in response to thrombin challenge; pH change; and platelet count. Platelet concentrate bags were obtained from a transfusion center within hours of collection. Aliquots were sampled from the platelet bags and concentrations of ribulose-5-phosphate were added for a final concentration from 1.5 mM down to 150 pM. Controls without ribulose-5-phosphate were analyzed for comparison. Samples were analyzed every 24 hours for platelet function.

Series [2] deals with platelets. The experiment in a line: Platelet aggregation on thrombin challenge (optical density / aggregometer). The format is cell-based. As to the method:
As a second measure of the effect of ribose on platelets, platelet aggregation was estimated. Platelet aggregation is a crucial function of platelet activity; platelets that cannot aggregate are essentially nonfunctional. Platelets were stored as above.
The optical density of the suspension was measured before and after thrombin challenge.
Platelet aggregation was measured with a platelet aggregometer (Chronolog, Inc., Irvine, Calif.). Platelet-rich, turbid suspensions were stirred in a cuvette and the transmittance of light through the sample relative to a platelet poor blank is recorded. When a aggregating agent is added, activated platelets with exposed fibrinogen receptors (GPIIbIIIa) are brought in close contact with each other in a medium containing calcium and fibrinogen and form increasingly large platelet aggregates, accompanied by a decrease in turbidity. The change in optical density was then translated by the instrument to percent aggregation. Simple stated, as platelets clump, more light passes through the cuvette.

Series [3] concerns platelets. The experiment in a line: P-selectin expression in stored platelets, basal and after 10 nM thrombin challenge (flow cytometry). The format is cell-based. As to the method: A basal measurement of spontaneous activation is obtained and the cells are then challenged with an agonist. The difference between cells challenged to activate minus the basal measurement is a measure of cell function. In the preferred embodiment, the agonist is 10 nM thrombin. P-selectin expression in response to a challenge of 10 nM thrombin is a highly accurate and quantitative method to assess platelet function using flow cytometry techniques. A monoclonal antibody to the platelet GPIIbIIIa receptor (Becton-Dickinson) is conjugated with green fluorescence, marking all platelets with a green detection. […] About 10,000 to 25,000 platelets are counted and measured for P-selectin expression and the % positive cells are defined as activated platelets that express P-selectin. Platelets that are activated are not capable of being activated a second time; that is, they are essentially nonfunctional. It was proposed years ago by Dawson (Transfusion 21:215-218. (1981)) that ribose at the concentration of 15 mM is beneficial to stored whole blood. It was assumed that ribose functioned by raising the energy levels of the cells, as discussed at length in U.S. Pat. No. 6,159,942. […] Platelet function was assessed by ATP secretion, platelet aggregation, P-selectin expression, platelet count and pH. Platelet function was measured every 24 hours. […]
Background: Flow cytometry measures light scatter and fluorescence of single cells or particles in a stream.

In series [4] the test system is platelets. Description: ATP secretion in response to 10 nM thrombin (luciferin/luciferase assay). The class given is cell-based. From the text: The platelet dense granules shown in FIG. 1 contain ATP which is released in response to platelet agonists such as thrombin, collagen or adenosine diphosphate (ADP). The release reaction of ATP from platelets serves as another method to monitor platelet function. There are many methods to analyze ATP. A convenient method is the well known luciferin/luciferase reaction (Sigma Chemical, St. Louis). This assay is derived from the light producing system of the firefly. The substrate luciferin, in the presence of ATP, is cleaved by the enzyme luciferase, accompanied by the emission of light. The emitted light is measured by a photomultiplier tube
Platelet suspensions containing about 350 units in 4 μl were mixed with 10 μl luciferin/luciferase reagent. An agonist is injected. As the platelet dense granules release ATP, the bioluminescent reaction occurs, which is measured by the photomultiplier tube. […] The rate of reaction is recorded and as platelet function decays, the rate decays. Total ATP was measured by lysing the cells with Triton and determining ATP content. The results as presented in Table III are expressed as intact rate of ATP secretion.

The subject of series [5] is bacteria. Description: Bacterial contamination of platelet storage solution (colony counts in Petri dishes). As to conditions: D-Ribose added to storage cocktail. As to the method:
Bacterial contamination was measured by colony counts in standard Petri dishes that had been inculated with the test solution. It is assumed that the millimolar glucose concentration in most platelet storage solutions contributes to the growth of bacteria. As noted above, Murphy (Table II) discloses a glucose-free solution for the storage of platelets. Elimination of reduction of glucose levels from millimolar to micromolar concentrations has a profound effect in reducing bacterial contamination, however, platelet function at five days, as measured by ATP secretion and P-selectin expression, was poor.

For series [6] the following is noted: 30 grams of ribose each day; cited from earlier work.
For series [7], the system named is whole blood. As to conditions: 15 mM ribose; cited from earlier work.

For `O=C(CO)[C@H](O)[C@H](O)COP(=O)(O)O` [ribulose-5-phosphate, Ribulose-5-phosphate], the “Platelet function parameters versus controls” value in series [1] (1.5 mM down to 150 pM, analyzed every 24 hours) was “No difference from controls”.

Consider `OC[C@@H](O)[C@H](O)[C@@H](O)CO` [xylitol], for which the “Preservation of platelet function” value in series [1] (trends inconsistent) is “some benefit”.

`O=C(CO)[C@@H](O)[C@H](O)COP(=O)(O)O` [xylulose-5-phosphate, Xylulose-5-phosphate]: the Platelet aggregation result in series [2] (five days storage) is listed as “weak”.

On to `O=C[C@H](O)[C@H](O)[C@H](O)CO` [D-Ribose], for which the “Preservation of function (P-selectin expression test)” value in series [3] (150 pM D-Ribose, five days storage) is given as “ineffective”. The “% positive (activated) cells” value in series [3] (153 nM D-Ribose, three days storage, basal) was 5%. Besides, the “Preservative effect on ATP secretion” value in series [4] (1.5 nM D-Ribose) is recorded as “no preservative effect”. Also, the “Rise in total ATP content of treated cells” value in series [4] (150 nM D-Ribose) is reported as “more than 10%”. For the same molecule, the Toxicity to platelets result in series [4] (15 mM D-Ribose) is on record as “toxic to platelets”. Further, in series [4] (optimal D-Ribose (150 nM), day 7), the “Mean ATP secretion activity, % of baseline” value is recorded as over 80%. The “Platelet samples with aggressive aggregation response” value in series [2] (day 3, 10 nM thrombin) is listed as “all five”. In addition, the “Platelet samples responding (aggregation)” value in series [2] (day five, thrombin) was “four out of five”. The “Platelet samples able to aggregate” value in series [2] (day seven, thrombin) is given as “three out of five”. Besides, the “Aggregation on thrombin challenge” value is listed as “no aggregation” in series [2] (platelets stored in 150 pM D-Ribose), “strong aggregation” in series [2] (platelets stored in 150 nM D-Ribose), “very weak effect” in series [2] (platelets stored in 15 μM D-Ribose) and “no aggregation” in series [2] (platelets stored in 1.5 mM D-Ribose). The Bacterial contamination result in series [5] is listed as “lower incidence of bacterial contamination”. Moreover, in series [1] (150 nM D-Ribose, glucose eliminated or reduced to micromolar), the “Platelet function compared with storage in presence of glucose” value was “similar”. Further, the Tolerability of ingestion entry in series [6] is “no ill effects”. For the same molecule, the “Effect on stored whole blood” value in series [7] was “beneficial”.

(Values after US6790603B2, “Compositions for the storage of platelets” (Bioenergy, Inc., priority 1999, dated 2004).)
